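A five-concentration, 48-hour dose response in 96-well plates underlies each endpoint, interpolated linearly between surrounding concentrations. GI50 is the concentration that inhibits growth by half. At the TGI there is no net growth.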
Experiments:
Assay in all cases: NCI-60 cell line screen, 48 h; in the data active = GI50 below about 0.43 µM; inactive = the rest
HS 578T breast = tested on: HS 578T breast
RPMI-8226 leukemia = tested on: RPMI-8226 leukemia
EKVX NSCLC = tested on: EKVX NSCLC
CCRF-CEM leukemia = tested on: CCRF-CEM leukemia
MCF7 breast = tested on: MCF7 breast
T-47D breast = tested on: T-47D breast
COLO 205 colon = tested on: COLO 205 colon
RXF 393 renal = tested on: RXF 393 renal
HCT-15 colon = tested on: HCT-15 colon
HT29 colon = tested on: HT29 colon
SF-268 CNS = tested on: SF-268 CNS
NCI-H460 lung = tested on: NCI-H460 lung
U251 CNS = tested on: U251 CNS
HOP-92 NSCLC = tested on: HOP-92 NSCLC
OVCAR-8 ovarian = tested on: OVCAR-8 ovarian
ACHN renal = tested on: ACHN renal
NCI-H23 lung = tested on: NCI-H23 lung
SNB-19 CNS = tested on: SNB-19 CNS
HOP-62 NSCLC = tested on: HOP-62 NSCLC
TK-10 renal = tested on: TK-10 renal
UACC-62 melanoma = tested on: UACC-62 melanoma
SF-295 CNS = tested on: SF-295 CNS
NCI-H522 lung = tested on: NCI-H522 lung
LOX IMVI melanoma = tested on: LOX IMVI melanoma
KM12 colon = tested on: KM12 colon
SK-MEL-28 melanoma = tested on: SK-MEL-28 melanoma
IGROV1 ovarian = tested on: IGROV1 ovarian
UO-31 renal = tested on: UO-31 renal
SK-MEL-5 melanoma = tested on: SK-MEL-5 melanoma
DU-145 prostate = tested on: DU-145 prostate
MOLT-4 leukemia = tested on: MOLT-4 leukemia
OVCAR-5 ovarian = tested on: OVCAR-5 ovarian
SF-539 CNS = tested on: SF-539 CNS
SW-620 colon = tested on: SW-620 colon
OVCAR-4 ovarian = tested on: OVCAR-4 ovarian
MDA-MB-231 breast = tested on: MDA-MB-231 breast
SR leukemia = tested on: SR leukemia
A549 NSCLC = tested on: A549 NSCLC
MDA-MB-435 = tested on: MDA-MB-435
K-562 leukemia = tested on: K-562 leukemia
PC-3 prostate = tested on: PC-3 prostate
NCI-H226 lung = tested on: NCI-H226 lung
UACC-257 melanoma = tested on: UACC-257 melanoma
M14 melanoma = tested on: M14 melanoma
SNB-75 CNS = tested on: SNB-75 CNS
HCT-116 colon = tested on: HCT-116 colon
NCI/ADR-RES ovarian = tested on: NCI/ADR-RES ovarian
SN12C renal = tested on: SN12C renal
MALME-3M melanoma = tested on: MALME-3M melanoma
SK-OV-3 ovarian = tested on: SK-OV-3 ovarian
SK-MEL-2 melanoma = tested on: SK-MEL-2 melanoma
A498 renal = tested on: A498 renal
HCC-2998 colon = tested on: HCC-2998 colon
HL-60(TB) leukemia = tested on: HL-60(TB) leukemia
BT-549 breast = tested on: BT-549 breast
786-0 renal = tested on: 786-0 renal
OVCAR-3 ovarian = tested on: OVCAR-3 ovarian

C=CCCCC(=O)CCC(=O)OCC1O[C@@H](O[C@@H]2C(O)[C@@H](OC(C)=O)C(C)O[C@H]2O[C@H](CC=C)CCCCC)C(O)[C@@H](OC(=O)/C(C)=C/C)[C@@H]1OC(=O)/C=C/c1ccccc1 (some centres not stated)
inactive: GI50 (EKVX NSCLC) 0.428 µM | GI50 (CCRF-CEM leukemia) 0.551 µM | GI50 (SF-268 CNS) 0.505 µM | GI50 (NCI-H23 lung) 0.995 µM | GI50 (SNB-19 CNS) 0.518 µM | GI50 (MOLT-4 leukemia) 2.09 µM | GI50 (OVCAR-5 ovarian) 1.44 µM | GI50 (OVCAR-4 ovarian) 2.29 µM | GI50 (NCI-H226 lung) 0.564 µM | GI50 (NCI/ADR-RES ovarian) 1.92 µM | GI50 (MALME-3M melanoma) 0.871 µM | GI50 (SK-OV-3 ovarian) 0.959 µM | GI50 (SK-MEL-2 melanoma) 0.609 µM | GI50 (A498 renal) 0.612 µM | GI50 (HCC-2998 colon) 1.08 µM | GI50 (HL-60(TB) leukemia) 0.673 µM
5.51 µM: TGI (SF-295 CNS)
> 14.7 µM: TGI (SK-MEL-2 melanoma)
3.26 µM: TGI (RPMI-8226 leukemia)
5.62 µM: TGI (UACC-62 melanoma)
2.11 µM: TGI (SN12C renal)
3.06 µM: TGI (HT29 colon)
12.3 µM: TGI (SF-539 CNS)
1.83 µM: TGI (SR leukemia)
1.55 µM: TGI (COLO 205 colon)
0.0309 µM: TGI (MDA-MB-231 breast)
0.517 µM: TGI (SK-MEL-5 melanoma)
1.21 µM: TGI (T-47D breast)
8.11 µM: TGI (UACC-257 melanoma)
> 28 µM: TGI (SNB-75 CNS)
3.34 µM: TGI (HL-60(TB) leukemia)
active: GI50 (HS 578T breast) 0.131 µM | GI50 (RPMI-8226 leukemia) 0.18 µM | GI50 (MCF7 breast) 0.0316 µM | GI50 (T-47D breast) 0.0273 µM | GI50 (COLO 205 colon) 0.088 µM | GI50 (RXF 393 renal) 0.0766 µM | GI50 (HCT-15 colon) 0.263 µM | GI50 (HT29 colon) 0.0251 µM | GI50 (NCI-H460 lung) 0.0656 µM | GI50 (U251 CNS) 0.0297 µM | GI50 (HOP-92 NSCLC) 0.0384 µM | GI50 (OVCAR-8 ovarian) 0.173 µM | GI50 (ACHN renal) 0.151 µM | GI50 (HOP-62 NSCLC) 0.235 µM | GI50 (TK-10 renal) 0.106 µM | GI50 (UACC-62 melanoma) 0.19 µM | GI50 (SF-295 CNS) 0.0144 µM | GI50 (NCI-H522 lung) 0.248 µM | GI50 (LOX IMVI melanoma) 0.0275 µM | GI50 (KM12 colon) 0.142 µM | GI50 (SK-MEL-28 melanoma) 0.34 µM | GI50 (IGROV1 ovarian) 0.28 µM | GI50 (UO-31 renal) 0.033 µM | GI50 (SK-MEL-5 melanoma) 0.0352 µM | GI50 (DU-145 prostate) 0.292 µM | GI50 (SF-539 CNS) 0.0546 µM | GI50 (SW-620 colon) 0.122 µM | GI50 (MDA-MB-231 breast) 0.00866 µM | GI50 (SR leukemia) 0.142 µM | GI50 (A549 NSCLC) 0.0345 µM | GI50 (MDA-MB-435) 0.0216 µM | GI50 (K-562 leukemia) 0.267 µM | GI50 (PC-3 prostate) 0.198 µM | GI50 (UACC-257 melanoma) 0.0791 µM | GI50 (M14 melanoma) 0.0633 µM | GI50 (SNB-75 CNS) 0.0133 µM | GI50 (HCT-116 colon) 0.0262 µM | GI50 (SN12C renal) 0.0881 µM | GI50 (BT-549 breast) 0.345 µM | GI50 (786-0 renal) 0.316 µM | GI50 (OVCAR-3 ovarian) 0.29 µM
> 50 µM: TGI (HS 578T breast) | TGI (EKVX NSCLC) | TGI (CCRF-CEM leukemia) | TGI (MCF7 breast) | TGI (RXF 393 renal) | TGI (HCT-15 colon) | TGI (SF-268 CNS) | TGI (NCI-H460 lung) | TGI (U251 CNS) | TGI (OVCAR-8 ovarian) | TGI (ACHN renal) | TGI (NCI-H23 lung) | TGI (SNB-19 CNS) | TGI (HOP-62 NSCLC) | TGI (TK-10 renal) | TGI (NCI-H522 lung) | TGI (KM12 colon) | TGI (SK-MEL-28 melanoma) | TGI (IGROV1 ovarian) | TGI (UO-31 renal) | TGI (DU-145 prostate) | TGI (MOLT-4 leukemia) | TGI (OVCAR-5 ovarian) | TGI (SW-620 colon) | TGI (OVCAR-4 ovarian) | TGI (A549 NSCLC) | TGI (MDA-MB-435) | TGI (K-562 leukemia) | TGI (PC-3 prostate) | TGI (NCI-H226 lung) | TGI (HCT-116 colon) | TGI (NCI/ADR-RES ovarian) | TGI (MALME-3M melanoma) | TGI (SK-OV-3 ovarian) | TGI (A498 renal) | TGI (HCC-2998 colon) | TGI (BT-549 breast) | TGI (786-0 renal) | TGI (OVCAR-3 ovarian)
0.127 µM: TGI (LOX IMVI melanoma)

From PubChem BioAssay (NCI)
